In one assay the test system is mixed species biofilm. The experiment in a line: Seahorse XFe Extracellular Flux Analyzer, bacterial metabolism (OCR/ECAR) in mixed species biofilm. Particulars: oxygen consumption rate. Format: cell-based. As to the method: (§1) Samples with varying amounts of cannabidiol (CBD) are assessed for their effects on cellular metabolism with and without various source of zinc. Using the Seahorse XF^e Extracellular Flux Analyzer, biofilm samples are grown for 48 hrs. […] The biofilms are harvested for culture. Diluted biofilm and toothpaste slurry are loaded to each well. Glycolysis—Extracellular Acidification Rate (ECAR) and Mitochondrial Respiration—Oxygen Consumption Rate (OCR) is measured for 25-50 cycles (˜360 minutes). […] The “CBD Oil” is 5% CBD (by wt. of the CBD Oil) in Hemp seed oil.
Where the “OCR” is oxygen consumption rate units as measured using the Seahorse XF^e Extracellular Flux Analyzer.: […]

The subject of another assay is S. mutans biofilms. In words: Seahorse XFe Extracellular Flux Analyzer, bacterial metabolism (OCR/ECAR) in S. mutans biofilm. Format: cell-based. Particulars: CBD and arginine slurries. The protocol: as §1

For `[F][Sn][F]` [0.2% by wt. Stannous Fluoride, Stannous Fluoride], the “Average (OCR) (p mole/min)” value with mixed species biofilm (Table 3, mixed species biofilm, CBD and stannous fluoride slurries, untreated 11489.9) is on record as 10440.7 p mole/min.
As to `N=C(N)NCCC[C@H](N)C(=O)O` [1% Arg, arginine], the “OCR Value (p mole/min)” value in the assay with S. mutans biofilms (Table 4, oxygen consumption rate, untreated 1449.50) turned out to be 518.58 p mole/min. For the same compound, in the assay on S. mutans biofilms (Table 5, extracellular acidification rate, untreated 701.2), the “ECR Value (mpH/min)” value is reported as 518.6 mpH/min.
As for `CC(O)C(=O)[O-].CC(O)C(=O)[O-].[Zn+2]` (stereo not shown) [1.5% Zinc Lactate, Zinc Lactate], the “Average (OCR) (p mole/min)” value with mixed species biofilm (Table 1, mixed biofilm, CBD and zinc lactate, untreated 25,669.50) is reported as 21,900.63 p mole/min.

The record behind these values is patent publication US20240091115A1, “Oral Care Compositions and Methods of Use” (Colgate-Palmolive Company, priority 2019, published 2024).
